# Data as given in patent publication US12037419B2 (The Feinstein Institutes for Medical Research, priority 2016, dated 2024).
# Experiments:
# sRAGE-C1q-HMGB1 complex = molecular target: T1, sRAGE-C1q-HMGB1 complex; test: RAGE-C1q-HMGB1 trimolecular complex formation (SPR and C1q-coated beads); format: binding, human; details: sRAGE immobilized, C1q 200 nM, HMGB1 500 nM, either order
# T1 construct: soluble RAGE (sRAGE) was immobilized on the sensor chip; C1q purified from pooled normal human sera; purchased R&D Systems (hrRAGE); Complement Technology (C1q)
# Description: The dissociation time was set for 1 minute.
# Trimolecular complex assay: Biotinylated-C1q (20 μg/ml) was precoated to SpeedBeads™ (Streptavidin-conjugated microbeads, Thermo Scientific). Beads were saturated with HMGB1, then incubated with RAGE.
# [1] = test system: splenic monocytes of C57BL/6 wild type, RAGE deficient or LAIR-1 deficient mice; test: HMGB1-induced gene transcription in murine splenic monocytes (wild type, RAGE deficient, LAIR-1 deficient); format: cell-based, mouse
# Description: Monocyte isolation and stimulation: Human PBMCs were obtained following institutional guidelines of the Feinstein Institute for Medical Research (Feinstein) and isolated from blood of healthy donors by density centrifugation (New York Blood Bank). Monocytes were negatively enriched using a human monocyte enrichment kit (Stem Cell Technology). Purity of monocytes (≥90% CD11b+CD14+LAIR-1+) was determined by flow cytometry. […] Splenic murine monocytes from wild type mice, RAGE deficient or LAIR-1 conditional knockout mice were isolated using EasySep mouse monocyte enrichment kit (Stem Cell Technology). C57BL/6 mice, Lysozyme2-Cre transgenic mice were purchased from Jackson Laboratory. Myeloid specific LAIR-1 conditional knockout mice (Lysozyme2-Cre×LAIR fl/fl) were bred and maintained in our facility (Feinstein) under specific pathogen-free conditions. RAGE deficient mice (Department of Medicine, Karolinska Institute Stockholm, Sweden) were maintained at Feinstein. Eight-to ten weeks old male mice were used for experiments. All animal procedures were approved by the Feinstein Institutional Animal Care and Use Committee.
# RT-PCR analysis and primers: Total RNA was extracted from cells (1-2×10^6 cells per sample) with an RNeasy kit (Qiagen, Venlo, Limburg, Netherlands) and cDNA was generated using an iScript cDNA synthesis kit (Bio-Rad laboratories). Real Time-PCR was performed on a Light Cycler 480 II (Roche) using Light Cycler 480 master mix with primers (Applied Biosystems) for IFNα1 (Hs00256882), IFNα7 (mm02525960), MX1 (Hs00182073, mm01217998), IL-6 (Hs00985639, mm99999064), TNFα (Hs00174128, mm00443258), IL-12a (Hs00168405), Mer (Hs01031973), PDL-1 (Hs01125301), IL-10 (Hs00961622), CD163 (Hs00174705), HPRT1 (Hs99999909, mm01545399) and Polr2a (Hs00172187). The genes of interest were normalized to the expression of house keeping genes and were compared to a control condition with no treatment. The relative induction was calculated by 2-ΔΔCt.
# [2] = test system: allogeneic primary human CD4 T cells; test: Allogeneic mixed lymphocyte reaction; format: cell-based; details: HMGB1 3 μg/ml, C1q 25 μg/ml
# Description: Allogeneic CD4 T lymphocytes were isolated from blood using the Naïve CD4+ T cell isolation kit II (Miltenyi Biotec.) following the manufacturer's protocol. Cells were analyzed by flow cytometry (>90%). T cells were labeled with 5 μM Cell Trace Violet cell proliferation kit (Thermo Fisher Scientific), added to mono/macrophages at a density of 2×10^5 cells/well (a 1:2 ratio) in the presence of 1 μg/ml anti-CD3 (OKT3, eBioscience). Control cultures contained medium only or T cells or mono/macrophages alone. After 4 days, cells were stained with FITC-anti-CD4, PerCPCy 5.5-CD14, PE-LAIR-1 and fixable viability dyes (FVD, eBioscience) for 20 min at room temperature and subsequently washed and fixed. Live cells (FVD-negative cells) were then gated on CD4-positive, and cell trace violet was assessed by flow cytometry on a BD LSR II (BD Biosciences). Cell proliferation was analyzed as described (51). The % divided cells was defined as the probability that a cell has divided at least once from the original population. The division index was defined as the average number of cell divisions that a cell in the original population has undergone.
# RAGE and LAIR-1 = molecular target: T2, RAGE and LAIR-1 (Homo sapiens, UniProt Q15109+Q6GTX8); test: Proximity ligation assay (PLA) for colocalization of RAGE and LAIR-1 on monocytes; format: cell-based
# T2 construct: endogenous in cells; host or cells: primary human monocytes from blood of healthy donors
# Description: Cells were then incubated overnight with a primary antibody pair directed to rabbit anti-RAGE (ab3611, Abcam) and to mouse anti-LAIR-1 (BD Bioscience), respectively. The cells were incubated with corresponding PLA probes conjugated to oligonucleotides (mouse MINUS and rabbit PLUS), then followed by ligation and rolling circle amplification in close proximity. Images were acquired using an AxioImage Z1 (Zeiss) apotome enabled (Zeiss) Fluorescent-intensity analysis of the images was performed using Zen2 (Zeiss).
# Immunofluorescence Microscopy: In situ proximal ligation assay was performed according to manufacturer's protocol (Duolink, Sigma). Following stimulation, human monocytes were washed three times with ice-cold PBS and were fixed with 4% (wt/vol) PFA for 1 hour at room temperature, seeded (2×10^5 cells) on slides using cytospin (Shandon), permeablized with chilled MeOH for 4 min and with PBS/0.1% (vol/vol) Triton X-100 and blocked for 1 h at room temperature. Cells were then incubated overnight with a primary antibody pair directed to rabbit anti-RAGE (ab3611, Abcam) and to mouse anti-LAIR-1 (BD Bioscience), respectively. The cells were incubated with corresponding PLA probes conjugated to oligonucleotides (mouse MINUS and rabbit PLUS), then followed by ligation and rolling circle amplification in close proximity. […] Quantification was performed using Zen2 (Zeiss). […]
# [3] = HMGB1 3 μg/ml, C1q 25 μg/ml, 6 h
# T2 sequence (Q15109 23-404): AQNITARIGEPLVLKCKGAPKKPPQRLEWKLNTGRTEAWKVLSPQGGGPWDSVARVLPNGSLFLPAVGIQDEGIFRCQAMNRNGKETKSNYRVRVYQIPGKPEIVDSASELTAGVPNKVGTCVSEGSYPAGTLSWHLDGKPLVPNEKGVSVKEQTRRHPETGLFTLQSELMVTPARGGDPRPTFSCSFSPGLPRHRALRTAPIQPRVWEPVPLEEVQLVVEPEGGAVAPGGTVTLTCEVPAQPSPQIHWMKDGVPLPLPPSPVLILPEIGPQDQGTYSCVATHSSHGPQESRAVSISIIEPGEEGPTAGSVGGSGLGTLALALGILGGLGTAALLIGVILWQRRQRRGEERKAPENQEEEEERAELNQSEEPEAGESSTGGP
# T2 sequence (Q6GTX8 22-287): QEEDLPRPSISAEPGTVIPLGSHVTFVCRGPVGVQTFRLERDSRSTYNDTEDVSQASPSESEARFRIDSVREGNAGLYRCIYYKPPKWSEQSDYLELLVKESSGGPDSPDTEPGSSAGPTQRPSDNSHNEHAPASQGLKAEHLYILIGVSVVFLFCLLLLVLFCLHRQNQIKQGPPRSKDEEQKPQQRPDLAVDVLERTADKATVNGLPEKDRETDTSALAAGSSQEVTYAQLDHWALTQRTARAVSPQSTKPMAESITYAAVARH
# T1 sequence (Q15109 23-342 limits assumed): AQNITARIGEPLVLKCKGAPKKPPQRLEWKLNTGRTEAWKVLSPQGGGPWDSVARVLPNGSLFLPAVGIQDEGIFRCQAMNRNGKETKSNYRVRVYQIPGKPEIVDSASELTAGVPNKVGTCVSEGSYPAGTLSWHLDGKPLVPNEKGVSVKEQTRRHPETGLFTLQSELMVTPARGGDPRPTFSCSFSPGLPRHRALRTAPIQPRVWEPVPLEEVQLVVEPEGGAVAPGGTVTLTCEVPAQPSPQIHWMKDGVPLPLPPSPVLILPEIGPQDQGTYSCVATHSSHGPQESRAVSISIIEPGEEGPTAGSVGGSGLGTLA
# T1 sequence (P09429 whole entry, further chain): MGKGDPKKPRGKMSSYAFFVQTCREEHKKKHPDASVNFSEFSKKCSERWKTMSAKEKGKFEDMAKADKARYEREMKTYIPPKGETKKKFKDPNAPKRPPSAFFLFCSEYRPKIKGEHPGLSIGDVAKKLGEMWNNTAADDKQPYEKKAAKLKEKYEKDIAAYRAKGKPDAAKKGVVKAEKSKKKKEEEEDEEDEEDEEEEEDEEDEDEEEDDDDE
# T1 sequence (P02745 23-245, further chain): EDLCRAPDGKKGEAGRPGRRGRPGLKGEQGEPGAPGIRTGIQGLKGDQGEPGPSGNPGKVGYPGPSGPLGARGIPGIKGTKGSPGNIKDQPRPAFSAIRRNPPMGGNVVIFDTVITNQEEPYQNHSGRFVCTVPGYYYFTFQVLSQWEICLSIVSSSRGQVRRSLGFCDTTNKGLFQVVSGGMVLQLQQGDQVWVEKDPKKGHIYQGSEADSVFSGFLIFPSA
# T1 sequence (P02746 28-253, further chain): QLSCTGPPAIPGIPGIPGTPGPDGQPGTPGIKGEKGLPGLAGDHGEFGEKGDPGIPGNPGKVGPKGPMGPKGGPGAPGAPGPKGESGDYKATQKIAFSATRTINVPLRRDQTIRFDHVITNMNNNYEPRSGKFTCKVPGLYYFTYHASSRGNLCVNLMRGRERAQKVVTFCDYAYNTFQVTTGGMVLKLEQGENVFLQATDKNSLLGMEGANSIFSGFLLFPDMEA
# T1 sequence (P02747 29-245, further chain): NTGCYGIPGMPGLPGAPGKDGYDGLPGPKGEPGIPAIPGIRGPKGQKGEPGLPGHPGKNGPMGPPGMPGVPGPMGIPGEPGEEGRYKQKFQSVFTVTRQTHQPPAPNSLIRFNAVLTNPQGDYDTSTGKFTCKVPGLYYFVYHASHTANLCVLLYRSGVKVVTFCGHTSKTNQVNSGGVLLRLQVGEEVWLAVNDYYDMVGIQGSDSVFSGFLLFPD
substance,measurement,setting,value
"C1q: C1q purified from pooled normal human sera, obtained from Complement Technology",trimolecular complex formation with HMGB1 and sRAGE,sRAGE-C1q-HMGB1 complex,formed a trimolecular complex
same,HMGB1-induced gene transcription in RAGE-deficient cells,[1]; [3],no change in HMGB1-induced gene transcription
same,HMGB1-induced proinflammatory cytokine gene transcription in wild type cells,[1]; [3],reduction in HMGB1-induced proinflammatory cytokine gene transcription
same,HMGB1-induced mRNA expression in LAIR-1 deficient monocytes,[1]; Lysozyme-Cre x floxed LAIR-1 mice,no inhibitory effect
same,stimulation of T cells by monocytes exposed to both HMGB1 and C1q,[2],poor stimulators of T cells
same,RAGE-LAIR-1 colocalization (PLA fluorescence),RAGE and LAIR-1; C1q with or without HMGB1,only detected in the presence of C1q
same,RAGE-LAIR-1 cross-linking with C1q co-incubated with LAIR-2,RAGE and LAIR-1; data not shown,negated the cross-linking of RAGE and LAIR-1
